The structures appear in SMILES notation.

In the RepoRT retention time repository (doi:10.1021/acs.analchem.2c02893) one finds LC retention time data, which are given here for 74 compounds.

The series is described as follows: RP, Thermo Scientific Acclaim RSLC 120 C18, 100 × 2.1 mm, 2.2 µm, 30 °C, 0.2 mL/min, estimated dead time 1.1 min; A: 90% water + 10% methanol + 0.01% formic acid + 5 mM ammonium formate, pH 3.61; B: methanol + 0.01% formic acid + 5 mM ammonium formate, pH 3.61; gradient (min/%B) 0/1 1/1 2/39 13/99.9 15/99.9 15.1/1 20.1/1. As to conditions: stereoisomer not certain.

On to `Cc1ccc(C(CCN(C)C)c2ccccc2)cc1` (centres undefined) [Tolpropamine], for which the LC retention time was 7.47 min.

Consider `CCN(CC)CC(=O)Nc1c(C)cccc1C(=O)OC` [Tolycaine], for which the LC retention time is 4.59 min.

As for `Cc1ccc(N(SC(F)(Cl)Cl)S(=O)(=O)N(C)C)cc1` [Tolyfluanid], the LC retention time is 10.8 min.

Regarding `CC1(C)OC2COC3(COS(N)(=O)=O)OC(C)(C)OC3C2O1` (centres undefined) [Topiramate], the LC retention time is 6.08 min.

As for `Cc1cccc(Nc2ccncc2S(=O)(=O)NC(=O)NC(C)C)c1` [Torasemide], the LC retention time was 6.67 min.

As for `CN(C)CCOc1ccc(C(=C(CCCl)c2ccccc2)c2ccccc2)cc1` [Toremifene], the LC retention time is 10.5 min.

On to `CC1(C)C(C(=O)OC(C#N)c2cccc(Oc3ccccc3)c2)C1C(Br)C(Br)(Br)Br` (centres undefined) [Tralomethrin], for which the LC retention time is 13.6 min.

With `COc1cccc(C2(O)CCCCC2CN)c1` (centres undefined) [Tramadol-N-bisdesmethyl (dinor-tramadol)], the LC retention time was 5.19 min.

Turning to `COc1cccc(C2(O)CCCCC2C[N+](C)(C)[O-])c1` (centres undefined) [Tramadol-N-oxide], the LC retention time is 5.24 min.

`CNCC1CCCCC1(O)c1cccc(OC)c1` (centres undefined) [Tramadol-Nor (Tramadol-N-desmethyl)]: the LC retention time is 5.3 min.

Consider `CCOC(=O)C(CCc1ccccc1)NC(C)C(=O)N1C(C(=O)O)CC2CCCCC21` (centres undefined) [Trandolapril], for which the LC retention time was 9.55 min.

Turning to `NCC1CCC(C(=O)O)CC1` (centres undefined) [Tranexamic acid], the LC retention time was 1.79 min.

As for `NC1CC1c1ccccc1` (centres undefined) [Tranylcypromine], the LC retention time is 4.27 min.

`O=c1n(CCCN2CCN(c3cccc(Cl)c3)CC2)nc2ccccn12` [Trazodone]: the LC retention time was 6.48 min.

Take `CC12C=CC3=C4CCC(=O)C=C4CCC3C1CCC2O` (centres undefined) [Trenbolone]: the LC retention time is 8.89 min.

For `CC(C)(C)C(=O)C(Oc1ccc(Cl)cc1)n1cncn1` (centres undefined) [Triadimefon], the LC retention time was 9.68 min.

`CC(C)(C)C(O)C(Oc1ccc(Cl)cc1)n1cncn1` (centres undefined) [Triadimenol]: the LC retention time is 9.93 min.

Regarding `CC(C)N(C(=O)SCC(Cl)=C(Cl)Cl)C(C)C` [Triallate], the LC retention time is 12.7 min.

With `CC1(C)OC2CC3C4CCC5=CC(=O)C=CC5(C)C4(F)C(O)CC3(C)C2(C(=O)CO)O1` (centres undefined) [Triamcinolone acetonide], the LC retention time is 8.69 min.

For `Nc1nc(N)c2nc(-c3ccccc3)c(N)nc2n1` [Triamterene], the LC retention time is 4.68 min.

For the compound `COc1nc(C)nc(NC(=O)NS(=O)(=O)c2ccccc2OCCCl)n1` [Triasulfuron], the LC retention time was 6.6 min.

Take `CCOC(=O)CSc1nc(C(C)(C)C)nn1C(=O)N(C)C` [Triazamate]: the LC retention time is 6.38 min.

For `OCc1nnc2n1-c1ccc(Cl)cc1C(c1ccccc1Cl)=NC2` [Triazolam-1-Hydroxymethyl (alpha-Hydroxy-Triazolam)], the LC retention time was 7.65 min.

Regarding `Cc1nnc2n1-c1ccc(Cl)cc1C(c1ccccc1Cl)=NC2` [Triazolam], the LC retention time was 8.05 min.

For the compound `[O-][n+]1nc(-n2ccnc2)nc2ccc(Cl)cc21` [Triazoxide], the LC retention time was 8.37 min.

Regarding `COC(=O)c1ccccc1S(=O)(=O)NC(=O)N(C)c1nc(C)nc(OC)n1` [Tribenuron-methyl], the LC retention time was 7.94 min.

As to `CCCCSP(=O)(SCCCC)SCCCC` [Tribufos (Merphos oxide. DEF)], the LC retention time was 13.4 min.

For the compound `CCCCN(CCCC)CCCC` [Tributylamine], the LC retention time was 5.28 min.

As for `COP(=O)(OC)C(O)C(Cl)(Cl)Cl` (centres undefined) [Trichlorfon (Dylox)], the LC retention time was 5.23 min.

Consider `CSc1nc2cc(Oc3cccc(Cl)c3Cl)c(Cl)cc2[nH]1` [Triclabendazole], for which the LC retention time is 12 min.

For `O=C(Nc1ccc(Cl)cc1)Nc1ccc(Cl)c(Cl)c1` [Triclocarban], the LC retention time was 12 min.

With `COC(=O)COc1nc(Cl)c(Cl)cc1Cl` [Triclopyr-methylester], the LC retention time was 10.4 min.

Consider `O=C(O)COc1nc(Cl)c(Cl)cc1Cl` [Triclopyr], for which the LC retention time is 7.85 min.

Take `Cc1cccc2sc3nncn3c12` [Tricyclazole]: the LC retention time was 5.93 min.

Take `CCNc1nc(Cl)nc(N(CC)CC)n1` [Trietazine]: the LC retention time was 10.2 min.

Take `CCOC(=O)CC(O)(CC(=O)OCC)C(=O)OCC` [Triethylcitrate]: the LC retention time is 6.94 min.

Take `CON=C(C(=O)OC)c1ccccc1CON=C(C)c1cccc(C(F)(F)F)c1` [Trifloxystrobin]: the LC retention time was 11.6 min.

Consider `COc1cc(OC)nc(NC(=O)NS(=O)(=O)c2ncccc2OCC(F)(F)F)n1` [Trifloxysulfuron], for which the LC retention time is 8.11 min.

Take `CCCOCC(=Nc1ccc(Cl)cc1C(F)(F)F)n1ccnc1` [Triflumizole]: the LC retention time is 11.8 min.

For the compound `O=C(NC(=O)c1ccccc1Cl)Nc1ccc(OC(F)(F)F)cc1` [Triflumuron], the LC retention time is 11.2 min.

On to `CN1CCN(CCCN2c3ccccc3Sc3ccc(C(F)(F)F)cc32)CC1` [Trifluoperazine], for which the LC retention time was 10.2 min.

Consider `O=C(CCCN1CCC(O)(c2cccc(C(F)(F)F)c2)CC1)c1ccc(F)cc1` [Trifluperidol], for which the LC retention time was 7.42 min.

With `CN(C)CCCN1c2ccccc2Sc2ccc(C(F)(F)F)cc21` [Triflupromazine], the LC retention time is 9.27 min.

For `COC(=O)c1cccc(C)c1S(=O)(=O)NC(=O)Nc1nc(OCC(F)(F)F)nc(N(C)C)n1` [Triflusulfuron-methyl], the LC retention time was 9.22 min.

In the case of `O=CNC(N1CCN(C(NC=O)C(Cl)(Cl)Cl)CC1)C(Cl)(Cl)Cl` (centres undefined) [Triforine], the LC retention time is 8.65 min.

For the compound `COCCOCCOCCOC` [Triglyme], the LC retention time is 4.28 min.

In the case of `OC(CCN1CCCCC1)(c1ccccc1)C1CCCCC1` (centres undefined) [Trihexyphenidyl. Benzhexol], the LC retention time is 7.86 min.

Consider `CNC(=O)Oc1cc(C)c(C)c(C)c1.CNC(=O)Oc1cc(C)cc(C)c1C` [Trimethacarb (2.3.5-)], for which the LC retention time is 8.4 min.

Regarding `CNC(=O)Oc1cc(C)c(C)c(C)c1` [Trimethacarb (3.4.5-)], the LC retention time was 8.1 min.

On to `COc1cc(C(=O)NCc2ccc(OCCN(C)C)cc2)cc(OC)c1OC` [Trimethobenzamide], for which the LC retention time is 4.86 min.

Turning to `COc1cc(C(=O)c2cnc(N)nc2N)cc(OC)c1OC` [Trimethoprim (Impurity B)], the LC retention time is 5.49 min.

With `CCCCCCCC[N+](C)(C)C` [Trimethyloctylammonium], the LC retention time is 6.08 min.

`CNCC(C)CN1c2ccccc2CCc2ccccc21` (centres undefined) [Trimipramine-Nor]: the LC retention time was 8.49 min.

In the case of `CC(CN(C)C)CN1c2ccccc2CCc2ccccc21` (centres undefined) [Trimipramine], the LC retention time is 8.31 min.

In the case of `CCOC(=O)C1CC(=O)C(=C(O)C2CC2)C(=O)C1` (centres undefined) [Trinexapac-ethyl], the LC retention time was 8.45 min.

In the case of `Cc1ccc(C(=CCN2CCCC2)c2ccccn2)cc1` [Triprolidine], the LC retention time was 6.28 min.

On to `CNCCC=C1c2ccccc2CCc2ccccc21` [Triptyline-Nor], for which the LC retention time is 8.51 min.

On to `CC1(C)CCC(=Cc2ccc(Cl)cc2)C1(O)Cn1cncn1` (centres undefined) [Triticonazole], for which the LC retention time is 10.1 min.

`CCOc1c(N)c2c(c(OCC)c1OCC)C(C1c3c(cc4c(c3OC)OCO4)CCN1C)OC2=O` (centres undefined) [Tritoqualine]: the LC retention time was 12 min.

As to `CN(C)CCOCC(=O)NC12CC3CC(CC(C3)C1)C2` [Tromantadine], the LC retention time was 6.64 min.

Consider `CCN(Cc1ccncc1)C(=O)C(CO)c1ccccc1` (centres undefined) [Tropicamide], for which the LC retention time was 6.03 min.

Regarding `CN1C2CCC1CC(OC(=O)c1c[nH]c3ccccc13)C2` (centres undefined) [Tropisetron], the LC retention time is 5.09 min.

For the compound `O=C(OC1CC2CCC(C1)[N+]21CCCC1)C(O)(c1ccccc1)c1ccccc1` (centres undefined) [Trospium], the LC retention time was 5.72 min.

For `CC(C)(C)NCC(O)c1ccccc1Cl` (centres undefined) [Tulobuterol], the LC retention time was 5.17 min.

`NC(Cc1cc(I)c(O)c(I)c1)C(=O)O` (centres undefined) [Tyrosine-3.5-Diiodo]: the LC retention time was 4.77 min.

On to `CCCOc1ccc(S(=O)(=O)NCCC2CCCN2C)cc1-c1nc2c(CCC)nn(C)c2c(=O)[nH]1` (centres undefined) [Udenafil], for which the LC retention time was 7.83 min.

For the compound `CC(C)(C)C(O)C(=Cc1ccc(Cl)cc1)n1cncn1` (centres undefined) [Uniconazole], the LC retention time is 10.5 min.

As to `Cc1onc(-c2ccccc2)c1-c1ccc(S(N)(=O)=O)cc1` [Valdecoxib], the LC retention time is 7.37 min.

On to `CC(C)C(N)C(=O)OCC(CO)OCn1cnc2c(=O)[nH]c(N)nc21` (centres undefined) [Valganciclovir], for which the LC retention time was 2.71 min.

In the case of `CCCCC(=O)N(Cc1ccc(-c2ccccc2-c2nn[nH]n2)cc1)C(C(=O)O)C(C)C` (centres undefined) [Valsartan], the LC retention time is 9.21 min.

Regarding `CNC(=O)C(C)SCCSP(=O)(OC)OC` (centres undefined) [Vamidothion], the LC retention time was 5.02 min.

Take `CNC(CC(C)C)C(=O)NC1C(=O)NC(CC(N)=O)C(=O)NC2C(=O)NC3C(=O)NC(C(=O)NC(C(=O)O)c4cc(O)cc(O)c4-c4cc3ccc4O)C(O)c3ccc(c(Cl)c3)Oc3cc2cc(c3OC2OC(CO)C(O)C(O)C2OC2CC(C)(N)C(O)C(C)O2)Oc2ccc(cc2Cl)C1O` (centres undefined) [Vancomycin]: the LC retention time was 3.26 min.

For `CCCc1nc(C)c2c(=O)[nH]c(-c3cc(C(=O)CN4CCN(CC)CC4)ccc3OCC)nn12` [Vardenafil-Acetyl], the LC retention time is 7.16 min.

Take `CCCc1nc(C)c2c(=O)[nH]c(-c3cc(S(=O)(=O)N4CCN(CCO)CC4)ccc3OCC)nn12` [Vardenafil-Hydroxy]: the LC retention time is 8.05 min.
